Assay results published in US9290741B2, “Simplified methods for generating endothelial cells from human pluripotent stem cells under defined conditions” (Wisconsin Alumni Research Foundation, priority 2013, dated 2016).

What was measured:
[1] = test system: hPSC-derived endothelial cells; experiment: Monolayer integrity: 40-kDa FITC-dextran permeability; type: cell-based, human; settings: 100 ng/mL VEGF or 10 μM oME, 24 hr of treatment, versus control
[2] = test system: hPSC-derived endothelial cells; experiment: Monolayer integrity: transendothelial electrical resistance (TEER); type: cell-based, human; settings: 100 ng/mL VEGF or 10 μM oME, versus control
19-9-11 ishcat iPSCs = experiment: Flow cytometry analysis of Brachyury expression during differentiation; type: cell-based, human; settings: 6 μM CHIR99021, in the absence of dox
Description: FIG. 8 Knockdown of β-catenin abolishes endothelial differentiation of hPSCs 19-9-11 ishcat iPSCs were cultured in LaSR basal medium containing 6 μM CH and/or 2 μg/ml doxycycline for 2 days. Flow cytometry analysis of Brachyury expression was performed after 2 days of differentiation.
Cells were dissociated into single cells with Accutase for 10 min and then fixed with 1% paraformaldehyde for 20 min at room temperature and stained with primary and secondary antibodies (Table 2) in PBS plus 0.1% Triton X-100 and 0.5% BSA. Data were collected on a FACSCaliber flow cytometer (Becton Dickinson) and analyzed using FlowJo.

19-9-11 iPSCs = experiment: Angioblast differentiation of hPSCs, flow cytometry of CD34 and CD31 at day 5; type: cell-based, human; settings: for induction of angioblast differentiation (percentage of CD34^+CD31^+ cells): 0.6 μM CHIR98014 or 0.6 μM BIO-acetoxime 2 days in LaSR medium, then StemPro-34 3 days, no VEGF, compared with 6 μM CHIR99021
Description: Cells were then cultured in mTeSR1, changed daily. At day 0, cells were treated with 6-10 μM CHIR99021 (Selleckchem) for 2 days in LaSR basal medium, which consists of Advanced DMEM/F12, 2.5 mM GlutaMAX, and 60 μg/ml ascorbic acid (Sigma, A8960). […] Cells were dissociated into single cells with Accutase for 10 min and then fixed with 1% paraformaldehyde for 20 min at room temperature and stained with primary and secondary antibodies (Table 2) in PBS plus 0.1% Triton X-100 and 0.5% BSA. Data were collected on a FACSCaliber flow cytometer (Becton Dickinson) and analyzed using FlowJo.

H9 cells = experiment: Angioblast differentiation of hPSCs with PD0325901 addition, flow cytometry of CD34 and CD31 at day 5; type: cell-based, human; settings: 1 μM PD0325901 added during differentiation induced with 6 μM CHIR99021
Description: FIG. 2 CD34^+CD31^+ angioblast differentiation induced by Gsk3 inhibitors in hPSCs is β-catenin dependent. […] At day 5, the percentage of CD34^+CD31^+ cells in culture was assessed by flow cytometry. (B) 19-9-11 iscramble and 19-9-11 […] cultured in mTeSR1 containing 2 μg/ml doxycycline. After 3 days, mRNA was collected and β-catenin expression evaluated by qPCR. Error bars represent the s.e.m. of 3 biological replicates. # […] versus iscramble; […] cultured in LaSR medium containing 6 μM CHIR99021 for 2 days before exposure to StemPro-34 medium for 3 days, with 2 μg/ml dox addition at the indicated times. 5 days after initiation of differentiation, cells were analyzed for CD34 and CD31 expression by flow cytometry. Error bars represent the s.e.m. of three independent experiments. […] hPSCs maintained on a MatrigelTM-coated surface in mTeSR1 were dissociated into single cells with Accutase (Life Technologies) at 37° C. for 5 min and then seeded onto a MatrigelTM-coated cell culture dish at 50,000 cell/cm^2 in mTeSR1 supplemented with 5 μM ROCK inhibitor Y-27632 (Selleckchem)(day -3) for 24 hours. Cells were then cultured in mTeSR1, changed daily. […] Data were collected on a FACSCaliber flow cytometer (Becton Dickinson) and analyzed using FlowJo.

[3] = test system: hPSC-derived endothelial cells; experiment: Flow cytometry analysis of ICAM-1 surface expression after TNF-α treatment; type: cell-based, human; settings: 10 ng/mL TNF-α for 16 hours versus unstimulated cells
From the text: FIG. 6 Characterization of endothelial cells derived from hPSCs (A) 19-9-11 iPSCs were differentiated as illustrated in FIG. 3A using LaSR basal medium. At day 5, CD34^+ cells were enriched and cultured in endothelial medium on laminin-coated plates. At different time points, the cell numbers were counted. (B-D) the purified day 60 endothelial cells were immunostained with (B) VE-cadherin and CD31, and tested for (C) tube-forming ability upon VEGF treatment and the ability to (D) uptake acetylated low-density lipoprotein (AcLDL). (E) Flow cytometry analysis of surface protein expression of ICAM-1 of untreated cells or cells treated with 10 ng/mL TNF-α for 16 hours. Error bars represent the s.e.m. of three independent experiments. (F-G) Barrier phenotype of the hPSC-derived endothelial cells. […] Barrier function was assessed by measuring transendothelial electrical resistance (TEER) 48 hours after seeding. […] (F) Transendothelial electrical resistance (TEER) was measured as a function of time, and normalized to the initial TEER value (36.7±4.3 Ωcm^2. (G) TEER and fluorescent dextran permeability were measured 24 hours after plating. Error bars represent the s.e.m. of three biological samples. ** p<0.005, VEGF (or oME) versus control; t test. […]

[4] = test system: hPSC-derived endothelial cells; settings: 50 ng/ml VEGF, 24 h; day 60 endothelial cells
Description: To assess the formation of capillary structures, 1×10^5 endothelial cells in 0.4 ml EGM-2 medium (Lonza) supplemented with 50 ng/ml VEGF (R&D Systems) were plated into one well of 24-well tissue culture plate pre-coated with 250 μl Matrigel™ (BD Bioscience). Tube formation was observed by light microscopy after 24 h of incubation.

CO[C@@H]1[C@@H]2OP(=O)(O)OC[C@H]2O[C@H]1n1c(Sc2ccc(Cl)cc2)nc2c(N)ncnc21 [8-pCPT-2′O-Me-cAMP, 8-(4-chlorophenylthio)-2′-O-Me-cAMP]
dextran permeability (40 kD) [1]: decreased
transendothelial electrical resistance (TEER) [2]: increased

Cc1c[nH]c(-c2cnc(NCCNc3ccc(C#N)cn3)nc2-c2ccc(Cl)cc2Cl)n1 [CHIR99021]
Brachyury expressing cells by day 2 (19-9-11 ishcat iPSCs): virtually pure population
CD31^+CD34^+ angioblasts generated (19-9-11 iPSCs; 6-10 μM CHIR99021 2 days, then 3 days StemPro-34 without VEGF, day 5): 25%
CD34^+CD31^+ cells generated (19-9-11 iPSCs; CHIR99021 (6 μM) 2 days in LaSR basal medium, then 3 days StemPro-34 with or without VEGF, day 5): more than 20%
CD34^+CD31^+ cells produced (19-9-11 iPSCs; LaSR basal medium, CHIR99021 2 days then 3 days without, seeding density 50,000 cells per cm2 at day -3): 55%
CD34^+CD31^+ cells in 5 days (19-9-11 iPSCs; single basal medium: LaSR basal medium with CHIR99021 2 days, then 3 days same medium without): 25%
CD34^+CD31^+ cells in 5 days (19-9-11 iPSCs; single basal medium: RPMI/B27 or EC medium containing serum, with CHIR99021 2 days, then 3 days without): not supporting differentiation to any detectable CD34^+CD31^+ cells

O=C(NOC[C@H](O)CO)c1ccc(F)c(F)c1Nc1ccc(I)cc1F [PD0325901]
effect on CD34^+CD31^+ cell differentiation (H9 cells): substantially diminished

BIO-acetoxime
induction of angioblast differentiation (percentage of CD34^+CD31^+ cells) (19-9-11 iPSCs): effectively induced angioblast differentiation to a similar extent as CHIR99021

CHIR98014
induction of angioblast differentiation (percentage of CD34^+CD31^+ cells) (19-9-11 iPSCs): effectively induced angioblast differentiation to a similar extent as CHIR99021

TNFα
expression of ICAM1 [3]: greatly increased

VEGF
dextran permeability (40 kD) [1]: increase
vascular tube formation in Matrigel matrix [4]: formed vascular tubes
transendothelial electrical resistance (TEER) [2]: sustained decrease
effect of VEGF treatment on yield of CD34^+CD31^+ cells (19-9-11 iPSCs; VEGF in StemPro-34 for 3 days after CHIR99021, day 5): did not significantly increase
